Laboratory results as given in PubChem BioAssay (NCI).
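Values below derive from 48-hour exposures of cells grown in 96-well plates, with endpoints linearly interpolated between the two concentrations bracketing the appropriate inhibition level. Abbreviation: GI50, concentration required for 50% inhibition of growth. The concentration for full growth arrest is given as TGI.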

What was measured:
Assay in all cases: inhibition of tumour cell growth, NCI panel, 48 h
786-0 renal = test system: 786-0 renal
SK-MEL-2 melanoma = test system: SK-MEL-2 melanoma
CAKI-1 renal = test system: CAKI-1 renal
NCI-H23 lung = test system: NCI-H23 lung
HCT-15 colon = test system: HCT-15 colon
SK-OV-3 ovarian = test system: SK-OV-3 ovarian
HOP-62 NSCLC = test system: HOP-62 NSCLC
UACC-62 melanoma = test system: UACC-62 melanoma
ACHN renal = test system: ACHN renal
A549 NSCLC = test system: A549 NSCLC
RXF 393 renal = test system: RXF 393 renal
SK-MEL-5 melanoma = test system: SK-MEL-5 melanoma
DU-145 prostate = test system: DU-145 prostate
HOP-92 NSCLC = test system: HOP-92 NSCLC
COLO 205 colon = test system: COLO 205 colon
HT29 colon = test system: HT29 colon
OVCAR-5 ovarian = test system: OVCAR-5 ovarian
UACC-257 melanoma = test system: UACC-257 melanoma
CCRF-CEM leukemia = test system: CCRF-CEM leukemia
MDA-MB-435 = test system: MDA-MB-435
M14 melanoma = test system: M14 melanoma
NCI-H522 lung = test system: NCI-H522 lung
K-562 leukemia = test system: K-562 leukemia
OVCAR-8 ovarian = test system: OVCAR-8 ovarian
UO-31 renal = test system: UO-31 renal
SN12C renal = test system: SN12C renal
TK-10 renal = test system: TK-10 renal
MDA-MB-231 breast = test system: MDA-MB-231 breast
OVCAR-3 ovarian = test system: OVCAR-3 ovarian

SMILES: COc1cc(C)c(NC(=O)CN(C)C)cc1Nc1nc(Nc2cccc(F)c2C(N)=O)c2cc[nH]c2n1
- GI50 (786-0 renal): 4150 nM
- TGI (786-0 renal): 8760 nM
- GI50 (SK-MEL-2 melanoma): 479 nM
- TGI (SK-MEL-2 melanoma): 3320 nM
- GI50 (CAKI-1 renal): 3680 nM
- TGI (CAKI-1 renal): 9950 nM
- GI50 (NCI-H23 lung): 586 nM
- TGI (NCI-H23 lung): 6020 nM
- GI50 (HCT-15 colon): 1980 nM
- TGI (HCT-15 colon): 6900 nM
- GI50 (SK-OV-3 ovarian): 2670 nM
- TGI (SK-OV-3 ovarian): 6290 nM
- GI50 (HOP-62 NSCLC): 1240 nM
- TGI (HOP-62 NSCLC): 5540 nM
- GI50 (UACC-62 melanoma): 1160 nM
- TGI (UACC-62 melanoma): 7890 nM
- GI50 (ACHN renal): 3810 nM
- TGI (ACHN renal): 7350 nM
- GI50 (A549 NSCLC): 945 nM
- TGI (A549 NSCLC): 4820 nM
- GI50 (RXF 393 renal): 1420 nM
- TGI (RXF 393 renal): 5900 nM
- GI50 (SK-MEL-5 melanoma): 690 nM
- TGI (SK-MEL-5 melanoma): 4360 nM
- GI50 (DU-145 prostate): 826 nM
- TGI (DU-145 prostate): 3700 nM
- GI50 (HOP-92 NSCLC): 12.4 nM
- TGI (HOP-92 NSCLC): 2660 nM
- GI50 (COLO 205 colon): 14 nM
- TGI (COLO 205 colon): 552 nM
- GI50 (HT29 colon): 9.81 nM
- TGI (HT29 colon): 725 nM
- GI50 (OVCAR-5 ovarian): 33.6 nM
- TGI (OVCAR-5 ovarian): 3630 nM
- GI50 (UACC-257 melanoma): 55.5 nM
- TGI (UACC-257 melanoma): 4050 nM
- GI50 (CCRF-CEM leukemia): 403 nM
- TGI (CCRF-CEM leukemia): 4880 nM
- GI50 (MDA-MB-435): 161 nM
- TGI (MDA-MB-435): 2560 nM
- GI50 (M14 melanoma): 1100 nM
- TGI (M14 melanoma): 5980 nM
- GI50 (NCI-H522 lung): 623 nM
- TGI (NCI-H522 lung): 3690 nM
- GI50 (K-562 leukemia): 1410 nM
- TGI (K-562 leukemia): 6380 nM
- GI50 (OVCAR-8 ovarian): 1640 nM
- TGI (OVCAR-8 ovarian): 6320 nM
- GI50 (UO-31 renal): 3330 nM
- TGI (UO-31 renal): 7080 nM
- GI50 (SN12C renal): 3860 nM
- TGI (SN12C renal): 8230 nM
- GI50 (TK-10 renal): 1930 nM
- TGI (TK-10 renal): 5550 nM
- GI50 (MDA-MB-231 breast): 2660 nM
- TGI (MDA-MB-231 breast): 6720 nM
- GI50 (OVCAR-3 ovarian): 682 nM
- TGI (OVCAR-3 ovarian): 1860 nM
